Patent US8252832B2, “Kinesin inhibitors as cancer therapeutics” (Novartis AG, priority 2007, dated 2012)
Where two headings read alike, the source gives them in different places.

Tests used:
Experiment in all cases: CellTiter-Glo, hematologic malignancy panel
Assay type in all cases: cell-based
KMS18-Luc = settings: MM
Excerpt: (§1) Identification of tumor types that are the most sensitive to the KSP inhibitors of the present invention can be accomplished using an unbiased approach that uses several cell-based assays. The assays chosen were as follows: • CellTiter-Glo®. This is an assay designed to measure ATP concentration in a cell culture, and can be correlated to cell number. Briefly CellTiter-Glo® (Promega Corporation) is a homogeneous method using the single CellTiter-Glo® reagent to detect ATP wherein ATP in the assay drives the activity of a thermostable luciferase to create a luminescent signal which can then be measured and correlated with the number of viable cells. Briefly, for adherent cells, 1,000 to 5,000 cells/well were plated in 96-well plates (100 μl/well) and let to adhere for 24 hours before being treated with drug. For non-adherent cells, 1,000 to 10,000 cells/well were plated in 96-well plates (100 μl/well) and immediately treated with drug. Drug dilutions were prepared in DMSO at 1000 times the final concentration. These dilutions were then diluted 1/100 in growth media before being added to the cells (11 μl/well) to achieve the desired final concentration. After 48 h in a 37° C. tissue culture incubator, the plates were processed for the CellTiter-Glo®assay according to the manufacturer's instructions. Protocol for a 72 hour cell proliferation assay: The 72 hour assay was performed the same way as the 48 hour assay except for the following modifications: For adherent cells, 500 to 5,000 cells/well were plated in 96-well plates (90 μl/well cell growth media) and left to adhere for 24 hours before being treated with drug. For non-adherent cells, 1,000 to 10,000 cells/well were plated in 96-well plates (90 μl/well cell growth media) and immediately treated with drug. Data values presented represent the concentration of test compound required for a 50% reduction in growth. • LDH release. The Cytotoxicity Detection KitPLUS (LDH) assay (Roche Diagnostics, Manheim, Germany) measures the amount of LDH released in the media by dying cells; LDH catalyzes the conversion of lactate into pyruvate. The enzymatic reaction is coupled to a chemical reaction that uses a tetrazolium salt to form a formazan that is red and can be detected by its absorbance at 490 nm. This assay measures the amount of cell death after drug treatment. Cells were plated at 10,000 cells/well in 96-well plates (100 μl/well). Adherent cells were let to adhere for 24 hours before being treated with drug, whereas non-adherent cells were immediately treated with drug. Drug dilutions were prepared in DMSO at 1000 times the final concentration. These dilutions were then diluted 1/100 in growth media before being added to the cells (11 μl/well) to achieve the desired final concentration. After 48 h in a 37° C. tissue culture incubator, the plates were processed for the Cytotoxicity Detection KitPLUS (LDH) assay according to the manufacturer's instructions. The media only values were subtracted from all the data points before analysis. Data values presented correspond to the compound concentration wherein LDH output is at half maximal level. • Caspase-Glo® 3/7. The Caspase-Glo® 3/7 Assay (Promega Corporation) is a homogeneous luminescent assay that measures caspase-3/7 activities. The assay provides a proluminescent caspase-3/7 DEVD-aminoluciferin substrate and a thermostable luciferase in a reagent optimized for caspase-3/7 activity, luciferase activity and cell lysis. Adding the single Caspase-Glo® 3/7 Reagent results in cell lysis, followed by caspase cleavage of the substrate. This liberates free aminoluciferin, which is consumed by the luciferase, generating a luminescent signal. The signal is proportional to caspase-3/7 activity. Data values presented correspond to the compound concentration wherein caspase 3/7 activity is at half maximal level. […]

KMS11 = settings: for GI50: Homo sapiens, KMS-11, MM
Excerpt: as §1

LP1 = settings: for GI50: Homo sapiens, LP-1, MM
Excerpt: as §1

[1] = GI50 in nM, read-out: Log(GI50) (converted)

## CC(C)(C)[C@H](c1nc(-c2cc(F)ccc2F)cn1Cc1ccccc1)N(CC[C@H](N)CF)C(=O)CO [Compound IIa]
KMS18-Luc
  Differential vs mean Log(GI50): −0.184
KMS18-Luc; [1]
  GI50: 0.518 nM
KMS18-Luc; read-out: GI50
  GI50: 0.52 nM
KMS11; [1]
  GI50: 0.483 nM
KMS11; read-out: GI50
  GI50: 0.48 nM
KMS11; MM
  Differential vs mean Log(GI50): −0.154
LP1; [1]
  GI50: 0.205 nM
LP1; read-out: GI50
  GI50: 0.21 nM
LP1; MM
  Differential vs mean Log(GI50): 0.218
